From patent US12391675B2, “NLRP3 modulators” (INNATE TUMOR IMMUNITY, INC., priority 2019, dated 2025)

Target: T1, NLRP3 (Homo sapiens, UniProt Q96P20)
T1 construct: host or cells: PMA-differentiated THP-1 cells
Experiment: Measurement of IL-1β production in PMA-differentiated THP-1 cells (NLRP3 hIL1B EC50)
Assay type: cell-based
Conditions: not given
Procedure: Measurement of IL-1β Production in PMA-Differentiated THP-1 Cells
THP-1 cells were purchased from the American Type Culture Collection and sub-cultured according to instructions from the supplier. Prior to experiments, cells were cultured in RPMI 1640 containing 10% heat inactivated FBS, penicillin (100 units/ml) and streptomycin (100 μg/ml), and maintained in log phase prior to experimental setup. Prior to the experiment THP-1 were treated with PMA (Phorbol 12-myristate 13-acetate) (10 μg/ml) for 24 hours. The day of the experiment the media was removed and attaching cells were treated with trypsin for 2 minutes, cells were then collected, washed with PBS (phosphate buffer saline), spin down, resuspended in 2% heat inactivated FBS with RPMI at a concentration of 1×10^6 cells/ml, and 100 μl was plated in a 96 well plate. Compounds were dissolved in dimethyl sulfoxide (DMSO) and added to the culture medium to achieve desired concentration (e.g. 100, 30, 10, 3, 1, 0.3 or 0.1 μM). Cells were incubated with compounds for 4 hours. Cell free supernatant was collected and the production of IL-1β was evaluated by ELISA. A vehicle only control was run concurrently with each experiment. Final DMSO concentration was 1%.
Measurement of IL-1β Production in PMA-Differentiated THP-1 Cells (Alternative Procedure)
THP-1 cells were purchased from the American Type Culture Collection and sub-cultured according to instructions from the supplier. Prior to experiments, cells were cultured in RPMI 1640 containing 10% heat inactivated FBS, penicillin (100 units/ml), streptomycin (100 μg/ml), HEPES (10 mM) and sodium pyruvate (1 mM) and maintained in log phase prior to experimental setup. Prior to the experiment, THP-1 cells were treated with PMA (Phorbol 12-myristate 13-acetate) (20 μg/ml) overnight. The day of the experiment, the media was removed and attached cells were treated with trypsin for 2 minutes, cells were then collected, washed with PBS (phosphate buffer saline), pelleted by centrifugation and resuspended in 2% heat inactivated FBS with RPMI at a concentration of 50,000 cells/well in a 384 well plate. Cell free supernatant was collected and the production of IL-1β was evaluated by ELISA. Compounds were dissolved in dimethyl sulfoxide (DMSO) and added to the culture medium to achieve desired concentration (e.g. 100, 30, 10, 3, 1, 0.3 or 0.1 μM). Cells were incubated with compounds for 2 hours. A vehicle only control was run concurrently with each experiment. Final DMSO concentration was 1%.
Measurement of IL-1β Production—hTRF Protocol (Second Alternative Procedure)
Serial dilutions of compounds in DMSO were added to low volume 384 well plates at 100 nl/well using an ECHO 550 acoustic dispenser (Labcyte) to achieve final starting concentration of 10 μM in assay.
THP-1 cells in RPMI (Gibco, 11875) media with 10% FBS at a density of 1×10^6 cell/ml in a T175 flask were treated with a final concentration of phorbol 12-myristate 13-acetate (PMA) (Sigma, P1585) of 50 ng/ml overnight at 37° C. at 5% CO2 for differentiation. Cells were harvested the next day after rinsing well wth dPBS using 0.5% trypsin. A cell solution was prepared of 1×10^6 cells/ml for 50,000 cells in 50 μl/well in RPMI media with 2% FBS. Cells were plated using a multichannel pipette onto the compound dilutions in Greiner, 384 well, black clear bottom tissue culture treated plates (781090). The plates were incubated in 37° C. incubator at 5% CO2 for 2 hours.
After the 2 hour incubation, the cell plates were spun in the centrifuge for 5 minutes at 1200 rpm. Using the Felix (CyBio), 8 μl of the supernatant was transferred to 384 well, low volume, white proxy plates. (Perkin Elmer, 6008230). A human IL1beta hTRF kit was used to analyze the supernatant (CISBIO, 62HIL1BPEG). The kit instructions were followed for preparing the IL1Beta standard curve and then the antibodies from the kit were diluted 1:40 rather than 1:20 as kit instructed. […]

T1 sequence (Q96P20 whole entry): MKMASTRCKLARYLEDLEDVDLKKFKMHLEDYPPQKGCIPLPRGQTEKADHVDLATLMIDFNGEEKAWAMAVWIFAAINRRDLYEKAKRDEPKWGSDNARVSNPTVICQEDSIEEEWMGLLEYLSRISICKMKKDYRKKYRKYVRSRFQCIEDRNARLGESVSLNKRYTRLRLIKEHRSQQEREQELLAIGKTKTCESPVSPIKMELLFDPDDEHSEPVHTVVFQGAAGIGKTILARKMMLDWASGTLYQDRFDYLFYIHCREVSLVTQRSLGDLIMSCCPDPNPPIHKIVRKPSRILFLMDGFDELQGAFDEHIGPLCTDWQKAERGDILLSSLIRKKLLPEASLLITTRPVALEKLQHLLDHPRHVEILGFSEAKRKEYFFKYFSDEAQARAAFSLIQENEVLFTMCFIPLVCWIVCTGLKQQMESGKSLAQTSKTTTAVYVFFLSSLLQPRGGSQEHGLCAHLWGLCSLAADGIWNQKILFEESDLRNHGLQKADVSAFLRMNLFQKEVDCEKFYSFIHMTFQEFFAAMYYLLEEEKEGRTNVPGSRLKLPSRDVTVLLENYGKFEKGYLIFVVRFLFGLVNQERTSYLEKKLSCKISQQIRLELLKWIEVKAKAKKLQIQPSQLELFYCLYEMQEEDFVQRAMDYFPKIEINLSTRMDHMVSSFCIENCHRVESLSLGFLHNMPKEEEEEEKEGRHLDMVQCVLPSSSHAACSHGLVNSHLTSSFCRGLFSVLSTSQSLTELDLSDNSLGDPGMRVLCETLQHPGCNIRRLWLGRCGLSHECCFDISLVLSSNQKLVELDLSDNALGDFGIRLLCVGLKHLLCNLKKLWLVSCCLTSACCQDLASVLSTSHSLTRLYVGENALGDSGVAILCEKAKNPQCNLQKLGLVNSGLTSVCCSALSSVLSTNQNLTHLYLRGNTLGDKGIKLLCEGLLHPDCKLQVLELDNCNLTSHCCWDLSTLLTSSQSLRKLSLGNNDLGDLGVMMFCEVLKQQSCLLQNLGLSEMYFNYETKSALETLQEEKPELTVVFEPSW

Row | Structure (SMILES) | EC50 [nM]
1 | Nc1cc(NC23CC(CO)(C2)C3)c2ccc(-c3ccn[nH]3)cc2n1 [Example 16, (3-((2-amino-7-(1H-pyrazol-5-yl)quinolin-4-yl)amino)bicyclo[1.1.1]pentan-1-yl)methanol] | 130
2 | Nc1cc(NC2CC3(CC(O)C3)C2)c2ccc(-c3ccn[nH]3)cc2n1 (single isomer, unassigned) [Example 26B, (Ra)-6-(2-amino-7-(1H-pyrazol-5-yl)quinolin-4-ylamino)spiro[3.3]heptan-2-ol] | 250
3 | Nc1nc(N2CC3CC2CO3)c2ccc(-c3cc[nH]n3)cc2n1 (racemic) [Example 9, rac-4-(2-oxa-5-azabicyclo[2.2.1]heptan-5-yl)-7-(1H-pyrazol-3-yl)quinazolin-2-amine] | 680
4 | Nc1nc(N[C@H]2C[C@@H]3C[C@H]2[C@@H](O)C3)c2ccc(-c3ccn[nH]3)cc2n1 (single isomer, unassigned) [Example 45B] | 3000
5 | C=CC12CCC(CNc3cc(N)nc4cc(-c5ccn[nH]5)ccc34)(CC1)CO2 [Example 25, 7-(1H-pyrazol-3-yl)-N4-((1-vinyl-2-oxabicyclo[2.2.2]octan-4-yl)methyl)quinoline-2,4-diamine] | 2000
6 | Nc1nc(N[C@@H]2C[C@H]3C[C@@H](O)C[C@H]3C2)c2ccc(-c3ccn[nH]3)cc2n1 [Example 2, (2r,3aR,5r,6aS)-5-((2-amino-7-(1H-pyrazol-5-yl)quinazolin-4-yl)amino)octahydropentalen-2-ol] | 600
7 | Nc1cc(N2CC3CCC(C2)O3)c2ccc(-c3ccn[nH]3)cc2n1 [Example 23] | 740
8 | Nc1cc(OCC23CCC(CC2)OC3)c2ccc(-c3cc[nH]n3)cc2n1 [Example 47, 4-((2-oxabicyclo[2.2.2]octan-4-yl)methoxy)-7-(1H-pyrazol-3-yl)quinolin-2-amine] | 320
9 | Nc1cc(NCC23CCC(CO)(CC2)OC3)c2ccc(-c3ccsc3)cc2n1 [Example 51, (4-(((2-amino-7-(thiophen-3-yl)quinolin-4-yl)amino)methyl)-2-oxabicyclo[2.2.2]octan-1-yl)methanol] | 1860
10 | CC(C)(C)OC(=O)N1CCC2(CC1)CC2Nc1nc(N)nc2cc(-c3cc[nH]n3)ccc12 (single isomer, unassigned) [Example 28B] | 780
11 | Nc1cc(NC2COCCC23OCCO3)c2ccc(-c3cc[nH]n3)cc2n1 (stereo not shown) [Example 33, 7-(1H-pyrazol-3-yl)-N4-(1,4,8-trioxaspiro[4.5]decan-6-yl)quinoline-2,4-diamine] | 17400
12 | Nc1cc(NC23CC(C2)C3)c2ccc(-c3ccn[nH]3)cc2n1 [Example 19] | 320
13 | Nc1nc(N2C[C@H]3C[C@@H]2CO3)c2ccc(-c3cc[nH]n3)cc2n1 (single isomer, unassigned) [Example 10] | 1600
14 | Nc1nc(NC23CC(CO)(C2)C3)c2ccc(-c3ccn[nH]3)cc2n1 [Example 7] | 200
15 | COC(=O)C12CCC(CNc3cc(N)nc4cc(-c5cc[nH]n5)ccc34)(CC1)CC2 [Example 50, methyl 4-(((2-amino-7-(1H-pyrazol-3-yl)quinolin-4-yl)amino)methyl)bicyclo[2.2.2]octane-1-carboxylate] | 1730
16 | Nc1nc(N[C@H]2CC3CC2[C@@H](O)C3)c2ccc(-c3ccn[nH]3)cc2n1 (mixture of isomers) [Example 40, rac-(2S,6S)-6-((2-amino-7-(1H-pyrazol-5-yl)quinazolin-4-yl)amino)bicyclo[2.2.1]heptan-2-ol] | 220
17 | CC(C)(C)OC(=O)N1CCC2(CC1)CC2Nc1nc(N)nc2cc(-c3cc[nH]n3)ccc12 (racemic) [Example 27, (rac)-tert-butyl 1-((2-amino-7-(1H-pyrazol-3-yl)quinazolin-4-yl)amino)-6-azaspiro[2.5]octane-6-carboxylate] | 390
18 | Nc1cc(NC2CC3(CC(O)C3)C2)c2ccc(-c3ccn[nH]3)cc2n1 (stereo not shown) [Example 21] | 880
19 | Nc1nc(NC2CC23CC3)c2ccc(-c3cc[nH]n3)cc2n1 (single isomer, unassigned) [Example 36A] | 85
20 | Nc1nc(NC2CC23CC3)c2ccc(-c3cc[nH]n3)cc2n1 (stereo not shown) [Example 35] | 190
21 | Nc1nc(N[C@H]2[C@@H]3COC[C@@H]32)c2ccc(-c3ccn[nH]3)cc2n1 [Example 4] | 310
22 | Nc1cc(NCC23CC(CO)(C2)C3)c2ccc(-c3ccn[nH]3)cc2n1 [Example 52, (3-(((2-amino-7-(1H-pyrazol-5-yl)quinolin-4-yl)amino)methyl)bicyclo[1.1.1]pentan-1-yl)methanol] | 980
23 | Nc1nc(N[C@@H]2[C@@H]3COC[C@@H]32)c2ccc(-c3ccn[nH]3)cc2n1 [Example 6] | 310
24 | Nc1cc(N[C@H]2C3CCC(C3)[C@H]2CO)c2ccc(-c3ccn[nH]3)cc2n1 (single isomer, unassigned) [Example 18] | 3000
25 | Nc1nc(N2C3CCC2COC3)c2ccc(-c3cc[nH]n3)cc2n1 [Example 12] | 640
26 | CCN1CCC2(CCN(c3nc(N)nc4cc(-c5cc[nH]n5)ccc34)C2)C1 (stereo not shown) [Example 38] | 2580

Target: T2, human TLR7 (Homo sapiens, UniProt Q9NYK1)
T2 construct: host or cells: human HEK-Blue cells co-expressing TLR7 and an NF-kB/AP1-inducible SEAP reporter
T2 sequence (Q9NYK1 27-1049): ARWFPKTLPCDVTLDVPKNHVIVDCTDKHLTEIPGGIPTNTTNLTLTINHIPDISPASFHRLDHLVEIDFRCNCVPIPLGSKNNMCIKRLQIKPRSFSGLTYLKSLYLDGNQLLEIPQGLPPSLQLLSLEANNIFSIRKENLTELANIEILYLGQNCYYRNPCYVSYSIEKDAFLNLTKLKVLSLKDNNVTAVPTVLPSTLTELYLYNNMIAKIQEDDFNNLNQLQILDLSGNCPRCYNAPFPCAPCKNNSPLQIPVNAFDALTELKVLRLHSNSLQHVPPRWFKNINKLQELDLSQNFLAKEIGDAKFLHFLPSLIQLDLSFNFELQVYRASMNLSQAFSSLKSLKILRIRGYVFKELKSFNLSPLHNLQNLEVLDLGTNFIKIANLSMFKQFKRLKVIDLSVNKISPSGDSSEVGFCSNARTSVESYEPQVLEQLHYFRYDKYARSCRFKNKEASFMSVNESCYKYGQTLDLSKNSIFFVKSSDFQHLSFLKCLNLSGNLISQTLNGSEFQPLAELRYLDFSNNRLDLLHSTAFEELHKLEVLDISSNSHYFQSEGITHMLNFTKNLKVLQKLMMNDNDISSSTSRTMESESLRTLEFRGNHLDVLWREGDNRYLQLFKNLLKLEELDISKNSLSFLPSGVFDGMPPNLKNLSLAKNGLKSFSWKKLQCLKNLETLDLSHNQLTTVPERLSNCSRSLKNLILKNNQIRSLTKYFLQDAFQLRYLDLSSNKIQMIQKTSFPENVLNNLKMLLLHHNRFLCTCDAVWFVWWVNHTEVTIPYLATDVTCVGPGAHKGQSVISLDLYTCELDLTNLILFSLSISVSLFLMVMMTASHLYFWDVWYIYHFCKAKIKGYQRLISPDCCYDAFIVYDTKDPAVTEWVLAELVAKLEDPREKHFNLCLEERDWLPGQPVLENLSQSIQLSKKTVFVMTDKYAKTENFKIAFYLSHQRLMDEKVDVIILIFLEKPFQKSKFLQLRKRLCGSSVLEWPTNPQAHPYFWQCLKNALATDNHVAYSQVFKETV
Experiment: In vitro human TLR7 binding reporter assay (HEK-Blue cells, NF-kB/AP1-inducible SEAP reporter)
Assay type: cell-based
Conditions: HEK-Blue cells expressing TLR7, SEAP reporter; read-out: TLR7 agonist EC50
Procedure: In Vitro Human TLR7 and TLR8 Binding Reporter Assays
Logarithmically-growing human HEK-Blue cells co-expressing a TLR7 or TLR8 gene and a NF-kB/AP1-inducible SEAP (secreted embryonic alkaline phosphatase; Invivogen, San Diego, CA) reporter gene are added to individual wells of a 384-well plate (15,000 cells per 20 μL per well) and maintained for 24 h at 37° C., 5% CO2. Test compounds or DMSO are distributed to separate wells the next day using acoustic liquid handling technology (100 nL per well) and cells are subsequently incubated for 18 h at 37° C., 5% CO2. Cellular SEAP production is measured using an Envision plate reader instrument thirty minutes after adding freshly-made Quanti-Blue reagent (prepared by following manufacturer instructions; Invivogen, San Diego, CA) to the HEK-Blue TLR Nf-kB-SEAP cell reactions. All EC50 values (half-maximal effective concentration) are determined using proprietary data analysis software.

Row | Structure (SMILES) | EC50 [µM]
27 | Nc1cc(NC23CC(CO)(C2)C3)c2ccc(-c3ccn[nH]3)cc2n1 [Example 16, (3-((2-amino-7-(1H-pyrazol-5-yl)quinolin-4-yl)amino)bicyclo[1.1.1]pentan-1-yl)methanol] | < 50
28 | C=CC12CCC(CNc3cc(N)nc4cc(-c5ccn[nH]5)ccc34)(CC1)CO2 [Example 25, 7-(1H-pyrazol-3-yl)-N4-((1-vinyl-2-oxabicyclo[2.2.2]octan-4-yl)methyl)quinoline-2,4-diamine] | < 50
